Source: article PMC8541017, “Potent and Selective Inhibitors of Human Monoamine Oxidase A from an Endogenous Lichen Fungus Diaporthe mahothocarpus” (Journal of Fungi, 2021)
Several values for one entry are separate records, joined by “and”; a condition that tells them apart may be missing. Equal values may be shown once. Read-outs that look alike come from different tables or passages of the source.

Key:
hMAO-A [1] = biological target: T1, hMAO-A (Homo sapiens, UniProt P21397); assay type: biochemical; conditions: for reversibility of hMAO-A inhibition: recovery test after dialysis; for residual hMAO-A activity after dialysis / residual hMAO-A activity before dialysis: ~2 × IC50: AT 0.040 µM, HAT 0.60 µM, MED 18.0 µM, toloxatone 2.0 µM, clorgyline 0.014 µM
T1 sequence (P21397 1-527): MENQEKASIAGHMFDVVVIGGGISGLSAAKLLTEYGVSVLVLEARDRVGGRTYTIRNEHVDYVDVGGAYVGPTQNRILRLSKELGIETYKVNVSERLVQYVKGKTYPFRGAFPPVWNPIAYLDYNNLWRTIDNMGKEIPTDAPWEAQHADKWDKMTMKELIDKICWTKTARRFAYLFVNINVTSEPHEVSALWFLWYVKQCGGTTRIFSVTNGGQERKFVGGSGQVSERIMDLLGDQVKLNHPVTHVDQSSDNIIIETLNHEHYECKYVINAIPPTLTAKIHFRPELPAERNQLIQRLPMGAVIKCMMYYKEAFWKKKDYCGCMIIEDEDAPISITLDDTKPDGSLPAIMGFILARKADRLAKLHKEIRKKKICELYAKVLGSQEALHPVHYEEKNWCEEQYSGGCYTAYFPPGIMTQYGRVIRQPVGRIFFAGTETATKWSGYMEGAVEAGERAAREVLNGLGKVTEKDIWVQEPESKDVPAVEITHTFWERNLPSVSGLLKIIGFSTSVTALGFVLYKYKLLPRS

BChE = biological target: T2, BChE (Equus caballus, UniProt P81908); test: biochemical; parameters: species or system horse; conditions: read-out: Residual Activity at 10 µM (%) BChE
T2 construct: from tissue; host or cells: horse serum
T2 sequence (P81908 whole entry): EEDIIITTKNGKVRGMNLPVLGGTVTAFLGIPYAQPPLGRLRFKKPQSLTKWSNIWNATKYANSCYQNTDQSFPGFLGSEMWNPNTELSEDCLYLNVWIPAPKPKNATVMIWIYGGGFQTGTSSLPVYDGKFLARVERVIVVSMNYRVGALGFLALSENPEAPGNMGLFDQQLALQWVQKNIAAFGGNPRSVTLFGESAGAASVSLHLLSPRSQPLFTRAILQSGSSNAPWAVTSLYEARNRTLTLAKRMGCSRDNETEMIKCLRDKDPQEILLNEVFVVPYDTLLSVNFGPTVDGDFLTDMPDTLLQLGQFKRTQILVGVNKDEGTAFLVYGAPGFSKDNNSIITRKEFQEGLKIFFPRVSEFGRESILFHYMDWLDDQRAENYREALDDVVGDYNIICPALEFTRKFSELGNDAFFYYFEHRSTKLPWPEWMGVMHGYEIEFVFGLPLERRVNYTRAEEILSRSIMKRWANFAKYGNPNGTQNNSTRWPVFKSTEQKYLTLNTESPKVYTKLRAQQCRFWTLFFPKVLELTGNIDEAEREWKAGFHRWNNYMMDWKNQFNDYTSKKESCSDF
Experimental: AChE from electric eel and BChE from horse serum were used for cholinesterases and assayed with a slight modification of the Ellman method. Shortly, after pre-incubating the enzyme and inhibitor for 15 min in 100 mM of sodium phosphate buffer (pH 7.5), 0.5 mM acetylthiocholine iodide (ATCI) or butyrylthiocholine iodide (BTCI) was added as a substrate for AChE or BChE assay, respectively. Then, 0.5 mM 5,5-dithiobis (2-nitrobenzoic acid) (DTNB) was added for color development for a final volume of 0.5 mL. Enzyme activity was measured for 15 min at room temperature in a kinetic mode at 412 nm.

topoisomerase II = conditions: cited from earlier work
BACE1 = BACE1 (Homo sapiens, UniProt P56817); test: BACE1 activity assay (fluorescence kit); conditions: for IC50: IC50 BACE1; for remaining activity at 10 µM: read-out: Residual Activity at 10 µM (%) BACE1
BACE1, sequence (P56817 46-501): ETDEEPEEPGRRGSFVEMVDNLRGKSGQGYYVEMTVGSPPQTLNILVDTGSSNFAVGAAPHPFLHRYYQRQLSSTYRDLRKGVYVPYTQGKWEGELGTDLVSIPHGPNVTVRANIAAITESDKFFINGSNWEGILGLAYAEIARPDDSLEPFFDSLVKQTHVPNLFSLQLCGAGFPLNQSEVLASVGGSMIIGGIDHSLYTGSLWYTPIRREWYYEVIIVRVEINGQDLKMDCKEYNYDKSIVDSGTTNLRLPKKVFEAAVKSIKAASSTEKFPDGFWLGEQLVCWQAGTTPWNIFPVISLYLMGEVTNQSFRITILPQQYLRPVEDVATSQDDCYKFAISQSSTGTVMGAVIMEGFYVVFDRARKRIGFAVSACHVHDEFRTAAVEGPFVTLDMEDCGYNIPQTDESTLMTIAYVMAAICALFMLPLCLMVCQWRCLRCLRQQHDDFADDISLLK
Experimental: Assays for inhibitory activities of compounds against hMAO-A, hMAO-B, AChE, BChE, and BACE1 were performed at 10-µM concentration of inhibitor.

hMAO-B [2] = biological target: T3, hMAO-B (Homo sapiens, UniProt P27338); test: biochemical; conditions: for Residual Activity (%) hMAO-B: 1-µM concentration (footnote a)
T3 sequence (P27338 1-520): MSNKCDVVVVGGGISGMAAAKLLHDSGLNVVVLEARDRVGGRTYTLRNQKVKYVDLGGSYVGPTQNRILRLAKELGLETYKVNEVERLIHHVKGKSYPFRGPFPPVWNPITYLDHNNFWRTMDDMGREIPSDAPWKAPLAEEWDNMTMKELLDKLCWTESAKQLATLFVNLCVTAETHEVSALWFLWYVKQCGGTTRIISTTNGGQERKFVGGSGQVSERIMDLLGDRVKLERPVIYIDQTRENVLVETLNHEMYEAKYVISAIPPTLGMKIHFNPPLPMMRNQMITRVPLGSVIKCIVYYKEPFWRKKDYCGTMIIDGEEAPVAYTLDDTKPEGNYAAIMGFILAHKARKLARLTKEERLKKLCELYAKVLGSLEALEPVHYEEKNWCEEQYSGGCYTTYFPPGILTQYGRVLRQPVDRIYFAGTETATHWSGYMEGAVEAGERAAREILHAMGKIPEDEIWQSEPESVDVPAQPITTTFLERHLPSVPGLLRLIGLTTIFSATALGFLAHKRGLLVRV
Experimental: (§1) Human recombinant MAO-A and MAO-B were assayed in a reaction mixture of 0.5 mL containing 50 mM sodium phosphate buffer (pH 7.2) and the substrates (0.06 mM kynuramine for hMAO-A and 0.3 mM benzylamine for hMAO-B). […] [30, 31]. The reactions were started with the addition of substrates without preincubation of the enzyme and inhibitor.

hMAO-A [3] = biological target: T1, hMAO-A; test: biochemical; conditions: for Residual Activity (%) hMAO-A: 1-µM concentration (footnote a); for inhibition type for hMAO-A: Lineweaver–Burk plot; for SI (selectivity index): hMAO-B/hMAO-A using IC50 values; for remaining activity at 2 µg/mL: read-out: Residual Activity at 2 µg/mL (%) hMAO-A
Experimental: as §1

AChE = biological target: T4, AChE (Electrophorus electricus, UniProt O42275); test: biochemical; parameters: species or system electric eel; conditions: for remaining activity at 10 µM: read-out: Residual Activity at 10 µM (%) AChE
T4 construct: AChE from electric eel and BChE from horse serum were used; from tissue; host or cells: electric eel
T4 sequence (O42275 24-633): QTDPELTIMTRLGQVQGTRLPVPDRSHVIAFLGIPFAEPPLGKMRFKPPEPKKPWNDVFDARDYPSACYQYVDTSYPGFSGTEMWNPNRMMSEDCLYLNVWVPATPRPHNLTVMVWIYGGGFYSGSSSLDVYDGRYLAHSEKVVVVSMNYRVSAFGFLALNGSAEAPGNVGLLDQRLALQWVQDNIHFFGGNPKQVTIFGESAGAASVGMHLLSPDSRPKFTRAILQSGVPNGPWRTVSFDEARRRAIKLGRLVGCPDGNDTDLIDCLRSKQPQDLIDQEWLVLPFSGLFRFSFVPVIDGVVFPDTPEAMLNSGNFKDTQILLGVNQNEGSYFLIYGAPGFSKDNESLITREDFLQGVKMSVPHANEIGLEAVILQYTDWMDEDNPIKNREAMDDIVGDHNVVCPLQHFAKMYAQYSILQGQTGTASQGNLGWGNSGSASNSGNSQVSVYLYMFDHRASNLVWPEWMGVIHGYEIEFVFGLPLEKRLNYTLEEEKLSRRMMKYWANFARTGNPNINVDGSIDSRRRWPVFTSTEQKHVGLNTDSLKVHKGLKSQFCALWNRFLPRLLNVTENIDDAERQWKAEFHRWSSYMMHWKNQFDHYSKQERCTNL

hMAO-A [4] = biological target: T1, hMAO-A; conditions: cited from earlier work
hMAO-B [5] = biological target: T3, hMAO-B; parameters: method as in PMID 33530616; conditions: cited from earlier work
MAO = conditions: read-out: IC50 MAO inhibitory activity; cited from earlier work

SMILES: Cc1cc(O)cc2oc(=O)c3c(O)cc(O)cc3c12 [AT, alternariol]
- reversibility of hMAO-A inhibition (hMAO-A [1]): reversible inhibitors
- residual hMAO-A activity after dialysis (hMAO-A [1]): 60.5%
- residual hMAO-A activity before dialysis (hMAO-A [1]): 33.5%
- remaining activity at 10 µM (BChE): 93.3 ± 4.1%
- concentration at which ROS formation and topoisomerase II interaction relate to toxicity (topoisomerase II): > 10 µM
- IC50 (BACE1): 36.7 ± 3.3 µM
- remaining activity at 10 µM (BACE1): 80.9 ± 0.2%
- IC50 (hMAO-B [2]): 20.7 ± 2.2 µM
- Residual Activity (%) hMAO-B (hMAO-B [2]): 75.6 ± 2.3%
- Ki (hMAO-A [3]): 0.0075 µM
- times higher hMAO-A inhibitory activity than toloxatone (hMAO-A [3]): 54.0 times
- Residual Activity (%) hMAO-A (hMAO-A [3]): −3.1 ± 0.0%
- IC50 (hMAO-A [3]; IC50 hMAO-A): 0.02 ± 0.001 µM
- inhibition type for hMAO-A (hMAO-A [3]): reversible competitive inhibitors
- SI (selectivity index) (hMAO-A [3]): 1035
- remaining activity at 2 µg/mL (hMAO-A [3]): -5.41 ± 0.98%
- IC50 (AChE): 10 ± 0.9 µM
- remaining activity at 10 µM (AChE): 58.7 ± 2%

SMILES: Cc1c(O)c(O)cc2oc(=O)c3c(O)cc(O)cc3c12 [HAT, 5′-hydroxy-alternariol]
- reversibility of hMAO-A inhibition (hMAO-A [1]): reversible inhibitors
- residual hMAO-A activity after dialysis (hMAO-A [1]): 79.4%
- residual hMAO-A activity before dialysis (hMAO-A [1]): 42.1%
- remaining activity at 10 µM (BChE): 96.2 ± 2.3%
- IC50 (BACE1): 24.7 µM
- remaining activity at 10 µM (BACE1): 71.3 ± 3.8%
- IC50 (hMAO-B [2]): > 40 µM
- Residual Activity (%) hMAO-B (hMAO-B [2]): 83.3 ± 4.0%
- Ki (hMAO-A [3]): 0.116 µM
- times higher hMAO-A inhibitory activity than toloxatone (hMAO-A [3]): 3.5 times
- Residual Activity (%) hMAO-A (hMAO-A [3]): 17.7 ± 1.1%
- IC50 (hMAO-A [3]; IC50 hMAO-A): 0.31 ± 0.02 µM
- inhibition type for hMAO-A (hMAO-A [3]): reversible competitive inhibitors
- SI (selectivity index) (hMAO-A [3]): >129
- times effective against hMAO-A than alternariol monomethyl ether (hMAO-A [3]; ratio of IC50 values): 5.5 times
- remaining activity at 2 µg/mL (hMAO-A [3]): 3.39 ± 3.43%
- IC50 (AChE): 19.9 ± 0.2 µM
- remaining activity at 10 µM (AChE): 65.6 ± 3.8%

SMILES: CC(=O)O[C@H]1C=CC(=O)O[C@H]1[C@@H]1[C@H](C)[C@H]2C=CC=C[C@@H]1O2 [MED, mycoepoxydiene]
- reversibility of hMAO-A inhibition (hMAO-A [1]): reversible inhibitors
- residual hMAO-A activity after dialysis (hMAO-A [1]): 83.7%
- residual hMAO-A activity before dialysis (hMAO-A [1]): 28.7%
- remaining activity at 10 µM (BChE): 95.5 ± 5.5%
- IC50 (BACE1): 35.9 ± 0.3 µM
- remaining activity at 10 µM (BACE1): 80.5 ± 2.7%
- IC50 (hMAO-B [2]; read-out: IC50 hMAO-B): > 40 µM
- remaining activity at 10 µM (hMAO-B [2]; read-out: Residual Activity at 10 µM (%) hMAO-B): 85.4 ± 6.9%
- inhibition type for hMAO-A (hMAO-A [3]): reversible competitive inhibitors
- Ki (hMAO-A [3]; Lineweaver–Burk secondary plot, read-out: Ki hMAO-A): 3.76 µM
- SI (selectivity index) (hMAO-A [3]): >4.59
- remaining activity at 2 µg/mL (hMAO-A [3]; isolated compounds from ELF29, 2 µg/mL): 66.7 ± 1.84%
- IC50 (hMAO-A [3]; read-out: IC50 hMAO-A): 8.68 µM and 8.7 µM
- remaining activity at 10 µM (hMAO-A [3]; read-out: Residual Activity at 10 µM (%) hMAO-A): 42.7 ± 0.9%
- IC50 (AChE; read-out: IC50 AChE): 18.6 ± 1.3 µM
- remaining activity at 10 µM (AChE): 65.2 ± 2.7%

SMILES: COc1cc(O)c2c(=O)oc3cc(O)cc(C)c3c2c1 [alternariol monomethyl ether]
- IC50 (hMAO-A [4]): 1.71 µM

SMILES: CC1CC(=O)c2c(O)cccc2O1 (centres unmarked) [hydroxy-2-methyl-chroman-4-one]
- IC50 (hMAO-A [4]): 14 µM
- IC50 (hMAO-B [5]): 3.23 µM

SMILES: CCCCCC(=O)c1c(O)cc2c(c1O)C(=O)c1c(O)cc(OC)cc1C2=O [solorinic acid]
- IC50 (MAO): 14.3 µM
